# Measurements taken from patent US20030232986A1, “Inhibitors of caspases” (Vertex Pharmaceuticals Incorporated, priority 1998, published 2003).
# Like-named read-outs stand apart in the source and are kept apart here. Where a SMILES comes first, the peptide text is derived from it. [ ]: non-standard residue; d: D form. The star is where a group is joined. 4Abz = Nc1ccc(C(=O)O)cc1; Bz = O=C(c1ccccc1)*
# Tests used:
# [1] = test system: Human whole blood, IL-1β production; assay: Whole blood assay for IL-1β production; type: cell-based; conditions: LPS-stimulated whole blood, IL-1β by ELISA
# Method in brief: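 LPS-stimulated (5.0 ng/ml final) human whole blood incubated with test compound in saline (or plasma/PBS-5% DMSO for hydrophobic compounds) at 30° C for 16-18 hr. Plasma IL-1β then measured by ELISA at 1:200 dilution, against no-LPS, no-inhibitor and vehicle controls.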
# [2] = test system: Human Peripheral Blood Mononuclear Cells (PBMC), mature IL-1β; assay: PBMC cell assay: IL-1β assay with human peripheral blood mononuclear cells; type: cell-based; conditions: LPS-stimulated human PBMC, mature IL-1β in supernatant by ELISA
# Method in brief: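 Donor PBMC (suspension at 6×10^6 cells/ml) or adherent-enriched monocytes were stimulated with 5 ng/ml LPS (final) alongside 5–6 compound dilutions bracketing the ICE Ki, at 0.1% DMSO final, for 16–18 hr at 37° C, 5% CO2. Mature IL-1β in supernatants was measured by ELISA; IC50 was calculated relative to LPS-only controls.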
# Caspase-1 = biological target: T1, Caspase-1 (Homo sapiens, UniProt P29466); assay: Caspase-1 enzyme inhibition (Ki); type: biochemical
# T1 sequence (P29466 120-297 limits assumed): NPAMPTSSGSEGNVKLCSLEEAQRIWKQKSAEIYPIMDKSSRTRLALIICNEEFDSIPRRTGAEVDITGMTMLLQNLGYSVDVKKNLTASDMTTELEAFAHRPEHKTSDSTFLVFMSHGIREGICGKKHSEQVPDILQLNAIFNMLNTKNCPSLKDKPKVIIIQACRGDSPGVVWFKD
# T1 sequence (P29466 317-404 limits assumed): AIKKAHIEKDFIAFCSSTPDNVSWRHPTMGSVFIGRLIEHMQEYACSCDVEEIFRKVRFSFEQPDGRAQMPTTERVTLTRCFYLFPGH
# Method in brief: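 Ki obtained by fitting rate versus inhibitor concentration to the Morrison tight-binding equation for competitive inhibitors, with pNA release read at 405 nm at 37 °C. Substrate Suc-YVAD-pNA (80 μM final) added after 15 min enzyme–inhibitor preincubation in Tris pH 7.5 buffer with DTT and CHAPS.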
# [3] = substrate Suc-YVAD-pNA 80 μM, 37° C., pH 7.5
SMILES,IC50 [1],IC50 [2],Ki (Caspase-1; [3]),Ki (Caspase-1)
"C[C@H](NC(=O)c1cnc2ccccc2n1)C(=O)N1CCC[C@H]1C(=O)N[C@H](C=O)CC(=O)O [Example 122j, 4-Oxo-3-[(1-{2-[(quinoxaline-2-carbonyl)-amino]-propionyl}-pyrrolidine-2-carbonyl) -amino]-butyric acid]",2500 to 7500 nM,> 2000 nM,10 to 1000 nM,–
COC(=O)N[C@@H]1C[C@@H](C(=O)N[C@H](C=O)CC(=O)O)N(C(=O)[C@@H](NC(=O)c2nccc3ccccc23)C(C)C)C1 [Example 9f],< 2500 nM,500 to 1000 nM,< 10 nM,–
CSC[C@H](NC(=O)c1cc(Cl)c(O)c(Cl)c1)C(=O)N1CCC[C@H]1C(=O)N[C@H](C=O)CC(=O)O [Example 20o],< 2500 nM,< 500 nM,< 10 nM,–
CC(=O)Nc1ccc(C(=O)N[C@@H](C)C(=O)N2CCC[C@H]2C(=O)N[C@H](C=O)CC(=O)O)cc1 [Example 7e] (Ac-[4Abz]APD-aldehyde),> 7500 nM,> 2000 nM,10 to 1000 nM,–
CC(C)[C@H](NC(=O)c1ccc2ncccc2c1)C(=O)N1CCC[C@H]1C(=O)N[C@H](C=O)CC(=O)O [Example 5ad],< 2500 nM,< 500 nM,< 10 nM,< 10 nM
COc1ccc(C(=O)N[C@H](C(=O)N2CCC[C@H]2C(=O)N[C@H](C=O)CC(=O)O)C(C)C)cc1OCc1ccccc1 [Example 5aa],< 2500 nM,500 to 1000 nM,< 10 nM,< 10 nM
COc1c(C)cc(C(=O)N[C@H](C(=O)N2CCC[C@H]2C(=O)N[C@H](C=O)CC(=O)O)C(C)C)cc1C [Example 5ac],< 2500 nM,< 500 nM,< 10 nM,< 10 nM
CCCCCCc1ccc(C(=O)N[C@H](C(=O)N2CCC[C@H]2C(=O)N[C@H](C=O)CC(=O)O)C(C)C)cc1 [Example 5z],> 7500 nM,500 to 1000 nM,< 10 nM,< 10 nM
CC(=O)Nc1ccc(C(=O)N[C@H](C(=O)N2CCC[C@H]2C(=O)N[C@H](C=O)CC(=O)O)C(C)C)cc1 [Example 5a] (Ac-[4Abz]VPD-aldehyde),< 2500 nM,> 2000 nM,< 10 nM,10 to 1000 nM
CC(C)[C@H](NC(=O)c1cc2ccccc2[nH]1)C(=O)N[C@@H](C)C(=O)N[C@H](C=O)CC(=O)O [Example 29i],< 2500 nM,< 500 nM,< 10 nM,–
CCC(C)[C@H](NC(=O)c1cc(Cl)c(O)c(Cl)c1)C(=O)N1CCC[C@H]1C(=O)N[C@H](C=O)CC(=O)O (stereo partly drawn) [Example 20k],< 2500 nM,< 500 nM,< 10 nM,–
C[C@@H](O)[C@H](NC(=O)c1cc(Cl)c(O)c(Cl)c1)C(=O)N1CCC[C@H]1C(=O)N[C@H](C=O)CC(=O)O [Example 20l],< 2500 nM,500 to 1000 nM,< 10 nM,–
CCCCCCOc1ccc(C(=O)N[C@H](C(=O)N2CCC[C@H]2C(=O)N[C@H](C=O)CC(=O)O)C(C)C)cc1 [Example 5y],2500 to 7500 nM,500 to 1000 nM,< 10 nM,< 10 nM
CC(C)[C@H](NC(=O)c1ccccc1C(=O)N[C@@H](C)c1ccccc1)C(=O)N1CCC[C@H]1C(=O)N[C@H](C=O)CC(=O)O [Example 5x],< 2500 nM,500 to 1000 nM,< 10 nM,< 10 nM
COc1ccc(C(=O)N[C@H](C(=O)N2CCNC[C@H]2C(=O)N[C@H](C=O)CC(=O)O)C(C)C)cc1 [Example 15c],< 2500 nM,500 to 1000 nM,< 10 nM,–
COc1cc(C(=O)N[C@@H](C)C(=O)N2CCC[C@H]2C(=O)N[C@H](C=O)CC(=O)O)cc(OC)c1OC [Example 7k],< 2500 nM,500 to 1000 nM,10 to 1000 nM,–
C[C@H](NC(=O)c1ccccc1)C(=O)N1CCC[C@H]1C(=O)N[C@H](C=O)CC(=O)O [Example 7b] (Bz-Ala-Pro-Asp-aldehyde),< 2500 nM,500 to 1000 nM,10 to 1000 nM,–

SMILES,IC50 [1],IC50 [2],Ki (Caspase-1; [3]),Ki (Caspase-1)
Cc1cc(C(=O)N[C@H](C(=O)N[C@@H](C)C(=O)N[C@H](C=O)CC(=O)O)C(C)C)cc(C)c1O [Example 29e],< 2500 nM,< 500 nM,< 10 nM,–
"CC(C)Oc1cccc(C(=O)N[C@@H](C)C(=O)N2CCC[C@H]2C(=O)N[C@H](C=O)CC(=O)O)c1 [Example 122h, 3-({1-[2-(3-Isopropoxy-benzoylamino)-propionyl]-pyrrolidine-2-carbonyl}-amino)-4-oxo-butyric acid]",< 2500 nM,1000 to 2000 nM,10 to 1000 nM,–
C[C@H](NC(=O)c1ccccn1)C(=O)N1CCC[C@H]1C(=O)N[C@H](C=O)CC(=O)O [Example 122e],2500 to 7500 nM,1000 to 2000 nM,10 to 1000 nM,–
Cc1cc(C(=O)N[C@@H](C)C(=O)N[C@@H](C)C(=O)N[C@H](C=O)CC(=O)O)cc(C)c1O [Example 29h],< 2500 nM,< 500 nM,< 10 nM,–
C[C@H](NC(=O)c1cccc2ccccc12)C(=O)N[C@@H](C)C(=O)N[C@H](C=O)CC(=O)O [Example 29d],< 2500 nM,500 to 1000 nM,< 10 nM,–
Cc1cc(C(=O)N[C@H](C(=O)N2CCNCC2C(=O)N[C@H](C=O)CC(=O)O)C(C)C)cc(C)c1O (stereo partly drawn) [Example 15a],2500 to 7500 nM,> 2000 nM,< 10 nM,–
CC(C)(C)[C@H](NC(=O)c1cccc2ccccc12)C(=O)N1CCC[C@H]1C(=O)N[C@H](C=O)CC(=O)O [Example 20b],> 7500 nM,500 to 1000 nM,< 10 nM,–
COc1ccc(C(=O)N[C@@H](C)C(=O)N2CCC[C@H]2C(=O)N[C@H](C=O)CC(=O)O)cc1C [Example 7p],2500 to 7500 nM,> 2000 nM,< 10 nM,–
CC(C)[C@H](NC(=O)c1ccccc1C(=O)c1ccc(F)cc1)C(=O)N1CCC[C@H]1C(=O)N[C@H](C=O)CC(=O)O [Example 5l],> 7500 nM,< 500 nM,10 to 1000 nM,10 to 1000 nM
COc1ccc2cc([C@H](C)C(=O)N[C@H](C(=O)N3CCC[C@H]3C(=O)N[C@H](C=O)CC(=O)O)C(C)C)ccc2c1 [Example 5ag],2500 to 7500 nM,500 to 1000 nM,< 10 nM,< 10 nM
COc1ccc(C(=O)N[C@H](C(=O)N2C3CCCCC3C[C@H]2C(=O)N[C@H](C=O)CC(=O)O)C(C)C)cc1 (stereo partly drawn) [Example 26d],< 2500 nM,500 to 1000 nM,< 10 nM,–
COc1ccc(C(=O)N[C@@H](C)C(=O)N2CCC[C@H]2C(=O)N[C@H](C=O)CC(=O)O)cc1F [Example 7m],2500 to 7500 nM,500 to 1000 nM,10 to 1000 nM,–
C[C@@H](O)[C@H](NC(=O)c1nccc2ccccc12)C(=O)N1CCC[C@H]1C(=O)N[C@H](C=O)CC(=O)O [Example 20d],2500 to 7500 nM,> 2000 nM,10 to 1000 nM,–
CC(C)[C@H](NC(=O)c1nccc2ccccc12)C(=O)N1CCCC[C@H]1C(=O)N[C@H](C=O)CC(=O)O [Example 25b],2500 to 7500 nM,500 to 1000 nM,< 10 nM,–
C[C@H](NC(=O)c1ccc(NS(C)(=O)=O)cc1)C(=O)N1CCC[C@H]1C(=O)N[C@H](C=O)CC(=O)O [Example 7x],> 7500 nM,> 2000 nM,10 to 1000 nM,–
C[C@H](NC(=O)c1ccc(C(N)=O)cc1)C(=O)N1CCC[C@H]1C(=O)N[C@H](C=O)CC(=O)O [Example 7u],2500 to 7500 nM,> 2000 nM,10 to 1000 nM,–
